One data set concerns the target T1, CYP2A6 (Homo sapiens, UniProt P11509).
T1 sequence (P11509 1-494): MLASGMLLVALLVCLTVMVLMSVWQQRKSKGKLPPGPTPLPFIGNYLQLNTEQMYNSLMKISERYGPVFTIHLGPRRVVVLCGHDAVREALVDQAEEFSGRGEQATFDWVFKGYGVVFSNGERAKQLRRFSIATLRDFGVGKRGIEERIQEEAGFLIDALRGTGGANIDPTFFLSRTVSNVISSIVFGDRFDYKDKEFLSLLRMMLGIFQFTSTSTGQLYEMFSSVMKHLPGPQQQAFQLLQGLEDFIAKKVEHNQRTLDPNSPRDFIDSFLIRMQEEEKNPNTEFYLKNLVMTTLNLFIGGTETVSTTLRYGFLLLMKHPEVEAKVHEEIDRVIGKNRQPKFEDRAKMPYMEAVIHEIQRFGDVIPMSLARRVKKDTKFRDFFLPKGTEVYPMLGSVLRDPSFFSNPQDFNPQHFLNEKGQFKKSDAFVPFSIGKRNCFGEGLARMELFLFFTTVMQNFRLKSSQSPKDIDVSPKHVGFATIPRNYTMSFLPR
The experiment in a line: 5-FU formation from FT enantiomers by cDNA-expressed CYP2A6 (kinetics, velocity, RAF contribution). The conditions noted are these: for CYP contribution: CYP2A6, RAF method, 30 μmol/L. The source says: Human hepatic 9000g supernatant (S9) and cytosolic fraction were purchased from XenoTech, LLC. (pooled preparations from 20 donors; Kansas City, KS). Human hepatic microsomes from five individuals (HG32, HH94, HH81, HH74, and HH31), a pooled preparation from 150 donors, and microsomes prepared from insect cell lines expressing CYP1A2, 2A6, 2B6, 2C8, 2C9, 2C19, 2D6, 2E1, and 3A4 were purchased from BD Gentest. Insect microsomes expressing only NADPH-P450 oxidoreductase and cytochrome b5 were also used as control. These enzymes were stored at −80°C until use.
Metabolic reaction by S9 and cytosol (each 2 mg protein/mL) was carried out in 100 mmol/L phosphate (pH 7.4) because TPase requires phosphate ions for catalyzing the reaction. In some cases, insect microsomes expressing recombinant CYP isoforms (20 pmol/mL) were added to the incubation mixtures in either 50, 100 mmol/L phosphate (pH 7.4) or 100 mmol/L Tris (pH 7.4), depending on supplier's recommendation. Microsomal protein concentrations of all cDNA-expressed CYPs were adjusted to 0.5 mg protein/mL by adding control microsomes expressing NADPH-P450 oxidoreductase and cytochrome b5. The reaction for the assay of FT metabolism was initiated by adding the substrate, following preincubation for 5 min at 37°C. After incubation at 37°C, the reaction was stopped by adding three volumes of ice-cold acetonitrile. The incubation times of microsomes, cytosol, and S9 were 15, 15, and 30 min, respectively. After centrifugation, the supernatant was collected and stored at −80°C until the determination of 5-FU. Because a small portion of FT is nonenzymatically converted to 5-FU, the content of 5-FU spontaneously formed was subtracted from total yield obtained after incubation to correct the activity. The spontaneous degradation of FT to 5-FU was evaluated using enzymes inactivated by heating them at 100°C for 5 min.
Concentration of 5-FU was determined using a LC/MS/MS system. The analytical system consisted of a HP1100 liquid chromatograph (Agilent Technologies, CA) coupled with an API4000 triple-quadrupole mass spectrometer (Applied Biosystems, CA) equipped with Turbo V source and ESI interface. Sample separation was performed using an Unison UK-Amino column (2.0 mm i.d. × 100 mm, 3 μm; Imtakt, Kyoto, Japan) at a flow rate of 0.2 mL/min at 40°C. The mobile phase consisted of 10 mmol/L ammonium acetate/acetonitrile 10:90 (v/v). […] For quantification of 5-FU, the calibration curves were linear over the range 2–1000 ng/mL.
Kinetic studies were performed using microsomes from five human livers (HG32, HH94, HH81, HH74, and HH31), cDNA-expressed CYP isoforms, or pooled human hepatic cytosol. In determining kinetic parameters, FT concentration ranged from 0.03 to 10 mmol/L. All reactions were performed in a linear range of 5-FU formation with respect to protein or CYP concentrations and incubation time.
Intrinsic clearance (CLint) was calculated as a ratio of V/S where V and S were the metabolite formation rate and the concentration of a probe substrate for CYP isoform, respectively, when the substrate concentration was well below the Km value. The RAF for each CYP isoform was calculated according to equation (3) (Venkatakrishnan et al. [2000]). [drawing 3] (3) n = 1A2, 2A6, 2C19, or 2E1.
The contribution of CYPn to the metabolism of R- and S-FT at their concentration of 30 μmol/L was subsequently calculated using equation (4). [drawing 4] (4) VCYPn = 5-FU formation rate in cDNA-expressed CYPn.

Details of data set [1]: method as in Damle et al. [2001]. The conditions noted are these: ref Damle et al. [2001], cited from earlier work; for maximum concentration (Cmax) / Cmax: cancer patients after oral administration of UFT; for Cmax: read-out: maximum concentration (Cmax); for area under the plasma concentration–time curve / plasma elimination half-life: cancer patients orally given FT.

`O=c1[nH]c(=O)n([C@@H]2CCCO2)cc1F` [S-FT] came in with a CYP contribution on CYP2A6 of 84.8%. On CYP2A6 (cDNA-expressed CYP2A6), the CLint came out at 4.9 nL min^−1 pmol^−1 CYP and the Vmax is given as 5.6 ± 0.3 pmol min^−1 pmol^−1 CYP. For the same compound, in data set [1], the “maximum concentration (Cmax)” value is 3.788 µg/mL, the Cmax is 18.9 µM, the “area under the plasma concentration–time curve” value is recorded as 49,300 ng h/mL and the plasma elimination half-life was 10.3 h.
For the compound `O=c1[nH]c(=O)n([C@H]2CCCO2)cc1F` [R-FT], the CYP contribution at CYP2A6 stood at 87.6%. In addition, on CYP2A6 (cDNA-expressed CYP2A6), the CLint came out at 26 nL min^−1 pmol^−1 CYP; the Km (in general, the concentration of substrate that gives half-maximal velocity) stood at 170 ± 10 µM; the Vmax was 4.5 ± 0.1 pmol min^−1 pmol^−1 CYP. Also, in data set [1], the “maximum concentration (Cmax)” value was 2.957 µg/mL, the Cmax was 14.8 µM, the “area under the plasma concentration–time curve” value is reported as 10,800 ng h/mL and the plasma elimination half-life is 2.4 h.

Source of the values: article PMC4184574, “Enantioselectivity in the cytochrome P450-dependent conversion of tegafur to 5-fluorouracil in human liver microsomes” (Pharmacology Research & Perspectives, 2013).
